Experimental data from patent US20100248226A1, “METHODS FOR MEASURING CELL RESPONSE TO DNA DAMAGING AGENTS USING PROMYELOCYTIC LEUKEMIA PROTEIN NUCLEAR BODIES” (priority 2006, published 2010).
Like-named read-outs stand apart in the source and are kept apart here.

What was measured:
[1] = test system: PML NBs in normal human diploid fibroblast (NHDF) cell line GM05757; assay type: cell-based
Description: (§1) Cell Culture and drug treatments. Cell lines used in this study: NDHFs (GM05757, Coriell Cell Repository); human AT fibroblasts (a.k.a. AT5B1, GM05823; Coriell); human NBS-T fibroblasts (gift of J. Lukas, Danish Cancer Society, Copenhagen, Denmark); human ATLD fibroblasts (gift of Y. Shiloh, Tel Aviv University, Tel Aviv, Israel) Saos-2 (American Tissue Culture Type Collection (ATCC), HCT116 and p53 null HCT116 isogenic cells (gift of Dr. B. Vogelstein, Department of Oncology, John Hopkins University, Baltimore, Md.); ATR-DN and ATR-WT cells (gift of Dr. Paul Nghiem, University of Washington Medical School, Seattle, Wash.); Seckel syndrome cells (GM18366, Coriell); Chk2−/−MEFs and isogenic WT MEFs (gift of Dr. T. Mak, University of Toronto, Toronto); and isogenic and U2OS cells stably expressing GFP-PML IV (gift of J. Taylor, U. Wisconsin, Milwaukee, Wis.). NBST-pBabe and NBST-pBabe-NBS1 cells lines were generated by retroviral transduction of NBS-T fibroblasts using either pBabe-Puro alone or encoding full length human NBS1 (gift of J. Lukas), respectively. […] Alternately, asynchronous cell cultures were exposed to whole-cell ionizing radiation (IR)(dose range, 0-20 Gy) using a ^137Cs irradiator (MDS Nordion, Ottawa, Canada) at 1 Gy/min (on ice, aerobic conditions). […]
(§2) IF detection of proteins, live-cell imaging and fluorescence recovery after photobleaching (FRAP). […]

[2] = test system: NHDFs; assay: BrdU incorporation (DNA synthesis) after VP16, NHDF; assay type: cell-based, human; conditions: NHDFs treated with CHX, 18 h post-VP16 treatment
Protocol: Cells were prepared for immunolabelling as described (Eskiw et al., 2003). To label with BrdU, cells were pulsed with 20 μM BrdU for 30 minutes, fixed in methanol for 30 minutes at −20° C. The methanol was removed and 4N HCl was added to the cells for 2 minutes at room temperature (RT). Cells were washed 3× with PBS at RT. Primary antibodies used were: mouse anti-PML, clone 5E10 (1:10)(a gift from R. van Driel, University of Amsterdam, The Netherlands), rabbit anti-PML (1:1000)(Chemicon, AB1370); rabbit anti-Sp100 (1:500)(Chemicon, Ab1380); mouse anti-RPA (1:200)(Calbiochem, RPA34-20); mouse anti-phospho-Histone H3 (ser10) (1:500)(Upstate, MC463); rabbit anti-Cyclin A (1:200)(Santa Cruz, sc-751); mouse anti-SUMO1 (1:20)(Zymed, GMP-1); mouse anti-y-H2AX (1:500)(Upstate, JBW301); mouse anti-BrdU (1:10)(BD Biosciences, clone B44). Secondary antibodies used were donkey anti-mouse or rabbit Cy3 and Cy5 (Jackson Laboratories). […] For fluorescence microscopy, coverslips were mounted on glass slides using 90% glycerol/PBS containing 1 mg/ml paraphenlenediamine and 1 μg/ml 4′,6-Diamidino-2-phenylindole (DAPI). Images were collected on a Leica Microsystems DMRA2 upright microscope equipped with a Hamamatsu ORCA-ER camera using the 63×1.32 NA oil-immersion objective. […] OpenLab 3.5.1 (Improvision) software was used to collect images, and the images were processed with Photoshop 7.0 (Adobe). […]

[3] = test system: PML protein in NHDFs; assay type: cell-based, human; conditions: CHX 30 min prior and maintained
Description: Cell Culture and drug treatments. Cell lines used in this study: NDHFs (GM05757, Coriell Cell Repository); human AT fibroblasts (a.k.a. AT5B1, GM05823; Coriell); human NBS-T fibroblasts (gift of J. Lukas, Danish Cancer Society, Copenhagen, Denmark); human ATLD fibroblasts (gift of Y. Shiloh, Tel Aviv University, Tel Aviv, Israel) Saos-2 (American Tissue Culture Type Collection (ATCC), HCT116 and p53 null HCT116 isogenic cells (gift of Dr. B. Vogelstein, Department of Oncology, John Hopkins University, Baltimore, Md.); ATR-DN and ATR-WT cells (gift of Dr. Paul Nghiem, University of Washington Medical School, Seattle, Wash.); Seckel syndrome cells (GM18366, Coriell); Chk2−/−MEFs and isogenic WT MEFs (gift of Dr. T. Mak, University of Toronto, Toronto); and isogenic and U2OS cells stably expressing GFP-PML IV (gift of J. Taylor, U. Wisconsin, Milwaukee, Wis.). NBST-pBabe and NBST-pBabe-NBS1 cells lines were generated by retroviral transduction of NBS-T fibroblasts using either pBabe-Puro alone or encoding full length human NBS1 (gift of J. Lukas), respectively. […] Alternately, asynchronous cell cultures were exposed to whole-cell ionizing radiation (IR)(dose range, 0-20 Gy) using a ^137Cs irradiator (MDS Nordion, Ottawa, Canada) at 1 Gy/min (on ice, aerobic conditions). […] Cells were then maintained in growth medium containing kinase inhibitors for the indicated time.

[4] = test system: PML NBs in NHDF cell line GM05757; assay: Kinase inhibitor effect on the PML NB number increase in response to DSBs; assay type: cell-based, human
Description: as §1, §2

[5] = test system: PML NBs in NHDFs (GM05757); assay: Correlative LM/ESI ultrastructure of PML NBs; assay type: cell-based, human; conditions: 20 μM VP16 for 30 min, NHDF
Protocol: Correlative Microscopy and Electron Spectroscopic Imaging—Samples were prepared and sectioned for correlative microscopy and electron spectroscopic imaging (ESI) as previously described (Eskiw et al., 2003; Dellaire et al., 2004). Nitrogen and phosphorus maps were collected using an FEI Technai 20 transmission electron microscope fitted with an electron imaging spectrometer (Gatan). Immuno-gold labeling was accomplished using a secondary antibody conjugated to Ultra-small nanogold (donkey anti-rabbit, EMS, Cat. 25100).

[6] = test system: NHDFs (GM05757); assay: FACS cell cycle analysis; assay type: cell-based, human; conditions: NHDFs by 18 h after VP16 treatment
Protocol: Cells were harvested and pelleted. The pellet was resuspended in 50 μl HBSS with 2% FBS. Cells were fixed with 1 ml ice-cold 80% ethanol for 30 minutes on ice. Cells were pelleted and resuspended in HBSS containing 0.1 mg/ml propidium iodide (Sigma) and 0.6% NP-40 to final concentration of 2×10^6 cells/ml. An equal volume of 2 mg/ml RNase in HBSS was added and incubated at room temperature in the dark for 30 minutes. This solution was then filtered through a 40 μm nylon mesh (BD Biosciences) and keep on ice until analysis. Cells were analyzed on a FACscan flowcytometer (BD Biosciences). Data analysis was performed using FlowJo 6.0 (Tree Star).

Compound: C[C@@H]1C[C@@H]([C@H](O)CC2CC(=O)NC(=O)C2)C(=O)[C@@H](C)C1 [CHX, cycloheximide]
- PML NB number initially, compared to untreated cells ([1]; CHX-treated NHDFs, VP16 treatment): higher number of PML NBs initially
- BrdU incorporation [2]: no BrdU incorporation
- effect on DNA damage-dependent increase in PML protein levels ([3]; 4 h after VP16): little effect
- effect on DNA damage-dependent increase in PML protein levels ([3]; 12 h after VP16): inhibited

Compound: NC(=O)c1ccc2nc(-c3ccc(Oc4ccc(Cl)cc4)cc3)[nH]c2c1 [Chk2 kinase inhibitor II]
- effect on PML NB number at 3 h following VP16 treatment ([4]; 10 μM Chk2 inhibitor II or 20 μM wortmannin pre-treatment, versus VP16 without inhibitor): significantly reduce
- effect on the initial increase in PML NBs in response to VP16 ([4]; 10 μM inhibitor pre-treatment, 30 min time point): did not affect

Compound: COc1cc([C@@H]2c3cc4c(cc3[C@@H](O[C@@H]3O[C@@H]5CO[C@@H](C)O[C@H]5[C@H](O)[C@H]3O)[C@H]3COC(=O)[C@H]23)OCO4)cc(OC)c1O [VP16, etoposide]
- PML NB ultrastructure (symmetry, chromatin contacts) [5]: lose their radial symmetry and make fewer contacts with the surrounding chromatin fibres
- cell cycle distribution [6]: marked accumulation in G1 and G2 phase

Compound: COc1cccc2c1C(=O)c1c(O)c3c(c(O)c1C2=O)C[C@@](O)(C(=O)CO)C[C@@H]3O[C@H]1C[C@H](N)[C@H](O)[C@H](C)O1 [doxorubicin]
- time after treatment at which γ-H2AX signal and PML NB number peaked ([1]; 20 μM VP16 or 1.5 μM doxorubicin for 30 min, NHDF GM05757): 3 h
